pKi: −log10 of the molar value. Structures can show the parent of a compound that is named as a salt.
Legend:
Assay type in all cases: biochemical
[1] = target: T1, human thrombin (Homo sapiens, UniProt P00734); assay: Inhibition of human thrombin (chromogenic substrate S2238), inhibitory constant Ki; details: 0.2-0.5 nM human thrombin, S2238, pH 7.5, 30 minutes; read-out: Ki values for inhibition of Serine Proteases: Thrombin
T1 construct: purchased Enzyme Research Laboratories, South Bend, Ind
Procedure: (§1) The effectiveness of compounds of the present invention as inhibitors of blood coagulation proteases was determined using purified human proteases and synthetic substrates following procedures similar to those described in Kettner et al. (1990).
(§2) For these assays, the rate of enzymatic (thrombin, Factor Xa, and Factor VIIa) hydrolysis of chromogenic substrates (S2238 (H-D-Phe-Pip-Arg-pNA), S2222, and S2288, respectively; Kabi Pharmacia, Franklin, Ohio.) was measured both in the absence and presence of compounds of the present invention. […] A decrease in the rate of absorbance change at 405 nm in the presence of inhibitor is indicative of enzyme inhibition. The results of this assay are expressed as inhibitory constant, Ki.
(§3) Thrombin and Xa determinations were made in 0.10M sodium phosphate buffer, pH 7.5, containing 0.20M NaCl, and 0.5% PEG 8000. VIIa determinations were made in 0.05M tris buffer, pH 7.6, containing 0.10M NaCl, 4 mM CaCl2, and 0.1% bovine serum albumin. The Michaelis constant, Km, for substrate hydrolysis was determined at 5° C. using the method of Lineweaver and Burk.
(§4) Values of Ki were determined by allowing 0.2-0.5 nM human thrombin or human factor Xa (Enzyme Research Laboratories, South Bend, Ind.), or 50 nM human factor VIIa (BiosPacific, Emeryville, Calif.) react with the substrate (0.20 mM-1 mM) in the presence of inhibitor. Reactions were allowed to go for 30 minutes and the velocities (rate of absorbance change vs time) were measured in the time frame of 25-30 minutes. The following relationship was used to calculate Ki values. [formula] where: vo is the velocity of the control in the absence of inhibitor;
(§5) vs is the velocity in the presence of inhibitor;
(§6) I is the concentration of inhibitor;
(§7) Ki is the dissociation constant of the enzyme: inhibitor complex;
(§8) S is the concentration of substrate;
(§9) Km is the Michaelis constant.

[2] = target: T2, human factor VIIa (Homo sapiens, UniProt P08709); assay: Inhibition of human factor VIIa (chromogenic substrate S2288), inhibitory constant Ki; details: 50 nM human factor VIIa, S2288, pH 7.6, 4 mM CaCl2, 30 minutes; read-out: Ki values for inhibition of Serine Proteases: Factor VIIa
T2 construct: Factor VIIa in the extrinsic pathway; purchased BiosPacific, Emeryville, Calif
T2 sequence (P08709 213-466 limits assumed): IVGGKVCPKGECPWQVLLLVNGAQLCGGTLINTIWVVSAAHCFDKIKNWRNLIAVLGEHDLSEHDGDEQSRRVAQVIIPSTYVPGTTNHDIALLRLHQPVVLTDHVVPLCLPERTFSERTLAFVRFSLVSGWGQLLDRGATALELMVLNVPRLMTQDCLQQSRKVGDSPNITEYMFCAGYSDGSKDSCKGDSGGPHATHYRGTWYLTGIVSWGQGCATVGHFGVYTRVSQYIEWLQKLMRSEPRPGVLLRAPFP
T2 sequence (P08709 61-212 partner limits assumed): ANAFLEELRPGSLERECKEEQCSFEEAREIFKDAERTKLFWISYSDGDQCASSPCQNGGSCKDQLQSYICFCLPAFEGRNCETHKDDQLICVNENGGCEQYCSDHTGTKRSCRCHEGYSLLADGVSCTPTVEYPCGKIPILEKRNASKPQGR
Procedure: as §1, §2, §3, §4, §5, §6, §7, §8, §9

[3] = target: T3, human factor Xa (Homo sapiens, UniProt P00742); assay: Inhibition of human factor Xa (chromogenic substrate S2222), inhibitory constant Ki; details: S2222, pH 7.5, 30 minutes, read-out: Ki values for inhibition of Serine Proteases: Factor Xa
T3 construct: purchased Enzyme Research Laboratories, South Bend, Ind
T3 sequence (P00742 235-488 limits assumed): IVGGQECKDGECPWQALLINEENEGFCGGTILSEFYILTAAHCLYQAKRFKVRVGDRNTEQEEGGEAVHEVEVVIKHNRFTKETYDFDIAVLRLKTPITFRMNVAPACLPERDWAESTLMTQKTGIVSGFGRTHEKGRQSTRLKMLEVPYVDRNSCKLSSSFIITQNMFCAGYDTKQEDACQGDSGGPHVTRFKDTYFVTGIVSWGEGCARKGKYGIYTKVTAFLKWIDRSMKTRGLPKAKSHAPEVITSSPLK
T3 sequence (P00742 41-179 partner limits assumed): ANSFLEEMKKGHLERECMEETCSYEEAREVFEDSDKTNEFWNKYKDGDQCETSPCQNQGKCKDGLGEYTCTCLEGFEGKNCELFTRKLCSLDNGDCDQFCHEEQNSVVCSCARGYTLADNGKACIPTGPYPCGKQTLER
Procedure: as §1, §2, §3, §4, §5, §6, §7, §8, §9

Row | SMILES | pKi [1] | pKi [2] | pKi [3]
1 | COC(=O)Cc1nc(Cc2ccccc2)nn1CC(=O)N[C@@H](CCCCN)B1OC2CC3CC(C3(C)C)C2(C)O1 (stereo partly drawn) [Example 2443] | > 6.30 | 4.30 to 6.30 | 4.30 to 6.30
2 | CC1(C)C2CC3OB([C@H](CCCCN)NC(=O)Cn4nc(Cc5ccccc5)nc4-c4ccccc4)OC3(C)C1C2 (stereo partly drawn) [Example 2446] | > 6.30 | 4.30 to 6.30 | 4.30 to 6.30
3 | CC1(C)C2CC3OB([C@H](CCCCN)NC(=O)Cn4nc(Cc5ccccc5)nc4Cc4ccccc4)OC3(C)C1C2 (stereo partly drawn) [Example 2447] | > 6.30 | 4.30 to 6.30 | 4.30 to 6.30
4 | NCCCC[C@H](NC(=O)Cn1cnc(Cc2ccccc2)n1)B(O)O [Example 2499] | > 6.30 | 4.30 to 6.30 | 4.30 to 6.30

More lines, now with the values ahead:

Row | pKi [1] | pKi [2] | pKi [3] | SMILES
5 | > 6.30 | < 3.30 | 4.30 to 6.30 | NCCCC[C@H](NC(=O)Cn1nc(Cc2ccccc2)nc1-c1ccccc1)B(O)O [Example 2533]
6 | > 6.30 | 4.30 to 6.30 | < 3.30 | Cc1nc(-c2ccccc2)ncc1C(=O)N[C@@H](CCCCN)B1O[C@@H]2C[C@@H]3C[C@@H](C3(C)C)[C@]2(C)O1 [Example 3458, R-N^1-((2-phenyl-4-methylpyrimidin-5-yl)carbonyl)borolysine, (+)-pinanediol ester, hydrochloride]
7 | > 6.30 | 4.30 to 6.30 | 4.30 to 6.30 | Cc1nc(-c2ccccc2)ncc1C(=O)N[C@@H](CCCNC(=N)N)B1O[C@@H]2C[C@@H]3C[C@@H](C3(C)C)[C@]2(C)O1 [Example 3538, R-N^1-((2-phenyl-4-methylpyrimidin-5-yl)carbonyl)boroarginine, (+)-pinanediol ester, hydrochloride]
